Data as given in ChEMBL document CHEMBL5634141 (Eur J Med Chem, 2023).
Activity calls are given as the source filed them. The rule behind the calls is not given here.

How the values were obtained:
[1] = tested on: Mus musculus; test: In vivo PROTAC activity at VHL/KRAS G12C mutant in BALB/c nude mouse xenografted with human MIA PaCa-2 cells assessed as decrease in AKT phosphorylation at 10 to 30 mg/kg, ip administered for 16 days by Western blot analysis; format: functional, organism-based; conditions: dose 10-30 mg/kg, time 16.0 day
[2] = tested on: von Hippel-Lindau disease tumor suppressor/GTPase KRas (Homo sapiens), P01116+P40337 [G12C]; test: PROTAC activity at VHL/KRAS G12C mutant in human MIA PaCa-2 cells assessed as induction of protein degradation at 100 nM incubated for 1 to 8 days by Western blotting analysis; format: cell-based; conditions: time 1-8 day
[3] = tested on: MIA PaCa-2; test: Antitumor activity against human MIA PaCa-2 cells xenografted in BALB/c nude mouse assessed as reduction in percentage of KRAS-positive cells at 10 to 30 mg/kg, ip administered for 16 days by immunohistochemical staining analysis; format: functional, organism-based; conditions: dose 10-30 mg/kg, time 16.0 day
[4] = tested on: NCI-H358; test: Synergistic antiproliferative activity against human NCI-H358 cells expressing KRAS G12C mutant assessed as combination index incubated for 72 hrs in presence of AZD4573 by CCK-8 assay; format: functional
[5] = tested on: NCI-H358; test: Induction of apoptosis in human NCI-H358 cells assessed as viable cells at 100 nM incubated for 48 hrs by Annexin V-FITC staining based flow cytometry analysis (reference value: 91.6 %); format: functional; conditions: read-out: Activity
[6] = tested on: NCI-H358; test: Antiproliferative activity against human NCI-H358 cells expressing KRAS G12C mutant assessed as reduction of cell growth by measuring fold decrease in IC50 incubated for 72 hrs in presence of AZD4573 by CCK-8 assay; format: functional
[7] = tested on: NCI-H23; test: Antiproliferative activity against human NCI-H23 cells expressing KRAS G12C mutant assessed as relative cell viability at 30 nM incubated for 72 hrs in presence of selumetinib by CCK-8 assay; format: functional; conditions: read-out: Activity
[8] = tested on: NCI-H358; test: Synergistic antiproliferative activity against human NCI-H358 cells expressing KRAS G12C mutant assessed as combination index at 30 nM incubated for 72 hrs in presence of MK-2206 by CCK-8 assay; format: functional
[9] = tested on: MIA PaCa-2; test: Antitumor activity against human MIA PaCa-2 cells xenografted in BALB/c nude mouse assessed as tumor growth inhibition at 10 mg/kg, ip measured after 8 days relative to control; format: functional; conditions: MIA PaCa-2, 192 h, time 8 day, read-out: TGI
[10] = tested on: NCI-H358; test: Antiproliferative activity against human NCI-H358 cells expressing KRAS G12C mutant assessed as relative cell viability at 30 nM incubated for 72 hrs in presence of infigratinib by CCK-8 assay; format: functional; conditions: read-out: Activity
[11] = tested on: MIA PaCa-2; test: Antiproliferative activity against human MIA PaCa-2 cells expressing KRAS G12C mutant assessed as inhibition of cell growth at 100 nM incubated for 8 days by CCK-8 assay; format: functional, cell-based; conditions: time 8.0 day
[12] = tested on: von Hippel-Lindau disease tumor suppressor/GTPase KRas (Homo sapiens), P01116+P40337 [G12C]; test: PROTAC activity at VHL/KRAS G12C mutant in human MIA PaCa-2 cells assessed as inhibition of ERK phosphorylation by Western blotting analysis; format: cell-based
[13] = tested on: Calu-1; test: Antiproliferative activity against human Calu-1 cells expressing KRAS G12C mutant assessed as relative cell viability at 30 nM incubated for 72 hrs in presence of MK-2206 by CCK-8 assay; format: functional; conditions: read-out: Activity
[14] = tested on: MIA PaCa-2; test: Antiproliferative activity against human MIA PaCa-2 cells expressing KRAS G12C mutant assessed as reduction of cell growth by measuring fold decrease in IC50 incubated for 72 hrs in presence of AZD4573 by CCK-8 assay; format: functional
[15] = AUC (0 to t) in ICR mouse at 2 mg/kg, iv measured after 24 hrs by LC-MS/MS analysis; format: ADME, organism-based; conditions: in vivo
[16] = tested on: von Hippel-Lindau disease tumor suppressor/GTPase KRas (Homo sapiens), P01116+P40337 [G12C]; test: PROTAC activity at VHL/KRAS G12C mutant in human MIA PaCa-2 cells assessed as induction of protein degradation at 300 nM incubated for 6 hrs by Western blotting analysis relative to control; format: cell-based
[17] = tested on: MIA PaCa-2; test: Antiproliferative activity against human MIA PaCa-2 cells expressing KRAS G12C mutant assessed as relative cell viability at 30 nM incubated for 72 hrs in presence of infigratinib by CCK-8 assay; format: functional; conditions: read-out: Activity
[18] = tested on: MIA PaCa-2; test: Antiproliferative activity against human MIA PaCa-2 cells expressing KRAS G12C mutant assessed as reduction of cell growth by measuring fold decrease in IC50 incubated for 72 hrs in presence of SHP099 by CCK-8 assay; format: functional
[19] = tested on: von Hippel-Lindau disease tumor suppressor/GTPase KRas (Homo sapiens), P01116+P40337 [G12C]; test: PROTAC activity at VHL/KRAS G12C mutant in human NCI-H358 cells assessed as inhibition of AKT phosphorylation at 100 nM incubated for 1 to 8 days by Western blotting analysis; format: cell-based; conditions: time 1-8 day
[20] = tested on: von Hippel-Lindau disease tumor suppressor/GTPase KRas (Homo sapiens), P01116+P40337 [G12C]; test: PROTAC activity at VHL/KRAS G12C mutant in human MIA PaCa-2 cells assessed as inhibition of Akt phosphorylation at 100 nM incubated for 1 to 8 days by Western blotting analysis; format: cell-based; conditions: time 1-8 day
[21] = tested on: Calu-1; test: Antiproliferative activity against human Calu-1 cells expressing KRAS G12C mutant assessed as relative cell viability at 30 nM incubated for 72 hrs in presence of crizotinib by CCK-8 assay; format: functional; conditions: read-out: Activity
[22] = tested on: MIA PaCa-2; test: Antiproliferative activity against human MIA PaCa-2 cells expressing KRAS G12C mutant assessed as reduction of cell growth by measuring fold decrease in IC50 incubated for 72 hrs in presence of Linsitinib by CCK-8 assay; format: functional
[23] = AUC (0 to infinity) in ICR mouse at 30 mg/kg, ip measured after 24 hrs by LC-MS/MS analysis; format: ADME, organism-based; conditions: in vivo
[24] = tested on: NCI-H358; test: Synergistic antiproliferative activity against human NCI-H358 cells expressing KRAS G12C mutant assessed as combination index incubated for 72 hrs in presence of SHP099 by CCK-8 assay; format: functional
[25] = tested on: NCI-H358; test: Antiproliferative activity against human NCI-H358 cells expressing KRAS G12C mutant assessed as relative cell viability at 30 nM incubated for 72 hrs in presence of daclolisib by CCK-8 assay; format: functional; conditions: read-out: Activity
[26] = tested on: MIA PaCa-2; test: Antitumor activity against human MIA PaCa-2 cells xenografted in BALB/c nude mouse assessed as reduction in number of tumor foci at 10 to 30 mg/kg, ip administered for 16 days by hematoxylin and eosin staining based analysis; format: functional, organism-based; conditions: dose 10-30 mg/kg, time 16.0 day
[27] = tested on: NCI-H358; test: Induction of apoptosis in human NCI-H358 cells assessed as early apoptotic cells at 30 nM incubated for 48 hrs by Annexin V-FITC staining based flow cytometry analysis (reference value: 1.60 %); format: functional
[28] = tested on: von Hippel-Lindau disease tumor suppressor/GTPase KRas (Homo sapiens), P01116+P40337 [G12C]; test: PROTAC activity at VHL/KRAS G12C mutant in human NCI-H358 cells assessed as inhibition of ERK phosphorylation at 100 nM incubated for 1 to 8 days by Western blotting analysis; format: cell-based; conditions: time 1-8 day
[29] = tested on: NCI-H23; test: Antiproliferative activity against human NCI-H23 cells expressing KRAS G12C mutant assessed as relative cell viability at 30 nM incubated for 72 hrs in presence of crizotinib by CCK-8 assay; format: functional; conditions: read-out: Activity
[30] = tested on: NCI-H358; test: Inhibition of colony formation in human NCI-H358 cells expressing KRAS G12C mutant assessed as reduction in cell number at 30 nM incubated for 14 days in presence of AZD4573 by crystal violet staining based analysis; format: functional; conditions: time 14.0 day

## C=CC(=O)N1CCN(c2nc(=O)n(-c3c(C)ccnc3C(C)C)c3nc(-c4c(F)cccc4OCC4CCN(CCCC(=O)N[C@H](C(=O)N5C[C@H](O)C[C@H]5C(=O)NCc5ccc(-c6scnc6C)cc5)C(C)(C)C)CC4)c(F)cc23)[C@@H](C)C1
[1]
  Activity: Active
[2]
  Activity: Active
[3]
  Activity: Active
[4]
  CI: <1
[5]
  viability at 0.1 µM: 85.9%
[6]
  fold change (FC): ~6
[7]
  viability at 0.03 µM: 0.24%
[8]
  CI: <1
[9]
  inhibition in vivo at 10 mg/kg: 93.4%
[10]
  viability at 0.03 µM: 0.38%
[11]
  Activity: Active
[12]
  Activity: Dose-Dependent Effect
[13]
  viability at 0.03 µM: 0.32%
[14]
  fold change (FC): ~9
[15]
  AUC(0-t) at 24 h: 399 ng·h/mL
[16]
  Activity: 50%
[17]
  viability at 0.03 µM: 0.35%
[18]
  fold change (FC): ~4
[19]
  Activity: Active
[20]
  Activity: Active
[21]
  viability at 0.03 µM: 0.31%
[22]
  fold change (FC): ~3
[23]
  AUC(0-inf): 21100 ng·h/mL
[24]
  CI: <1
[25]
  viability at 0.03 µM: 0.29%
[26]
  Activity: Active
[27]
  Activity: 3.48%
[28]
  Activity: Active
[29]
  viability at 0.03 µM: 0.33%
[30]
  inhibition: Active
